Source: US20030138785A1 (priority 2001, published 2003)

How the values were obtained:
[1] = biological target: T1, LexA-rGR and B42-DHFR (UniProt P06536+P0ABQ4); settings: shown by WO 01/53355; cited from earlier work
T1 sequence (P06536 542-776 limits assumed): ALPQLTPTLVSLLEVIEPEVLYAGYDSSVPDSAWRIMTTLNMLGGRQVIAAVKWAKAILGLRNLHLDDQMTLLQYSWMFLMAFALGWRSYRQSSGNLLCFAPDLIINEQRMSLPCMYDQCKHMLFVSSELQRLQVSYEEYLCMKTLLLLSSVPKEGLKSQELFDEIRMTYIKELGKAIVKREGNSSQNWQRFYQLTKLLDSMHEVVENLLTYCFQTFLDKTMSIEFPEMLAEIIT
T1 sequence (P0ABQ4 1-159): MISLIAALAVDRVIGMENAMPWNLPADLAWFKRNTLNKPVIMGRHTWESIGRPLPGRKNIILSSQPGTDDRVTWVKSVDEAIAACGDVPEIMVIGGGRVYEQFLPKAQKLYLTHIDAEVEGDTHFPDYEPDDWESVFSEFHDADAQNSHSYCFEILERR

[2] = system: DHFR fusion protein; assay: MP5 competition assay (yeast three-hybrid X-gal plate assay of lacZ transcription); format: cell-based; settings: 1 μM D8M, X-gal plates, LexA/B42 chimeras of DHFR and rGR
Protocol: FIG. 7. MP5 Competition Assay. […] Columns A through H on each plate correspond to yeast strains containing different LexA- and/or B42-chimeras: A, LexA-Sec16p, B42-Sec6p. A is a direct protein-protein interaction used as a positive control. B, LexA, B42. C, LexA-eDHFR, B42-rGR. D, LexA-mDHFR, B42-rGR. E, LexA-rGR, B42-eDHFR. F, LexA-rGR, B42-mDHFR. G, LexA-eDHFR, B42. H, LexA, B42-rGR.
This competition assay was performed using D8M as the “well characterized” small molecule.

[3] = system: S. cerevisiae; settings: supplemented with appropriate nutrients; cited from earlier work
[4] = system: dihydrofolate reductase (DHFR); settings: cited from earlier work
[5] = system: E. coli; settings: supplemented with appropriate nutrients; cited from earlier work

Structure (SMILES)	dimerization of LexA-rGR and B42-DHFR based on lacZ transcription [1]	induction of lacZ transcription [2]	growth in the presence of MTX [3]	affinity of DHFR binding [4]	affinity of DHFR inhibition [4]	growth in the presence of MTX [5]
C[C@@H]1C[C@H]2C3CCC4=CC(=O)C=C[C@]4(C)[C@@]3(F)[C@@H](O)C[C@]2(C)[C@@]1(O)C(=O)NCCSCCCCCCCCSCC[C@H](NC(=O)c1ccc(N(C)Cc2cnc3nc(N)nc(N)c3n2)cc1)C(=O)O (stereo partly drawn) [D8M]	mediate the dimerization of LexA-rGR and B42-DHFR	induced lacZ transcription				
CN(Cc1cnc2nc(N)nc(N)c2n1)c1ccc(C(=O)N[C@@H](CCC(=O)O)C(=O)O)cc1 [MTX, methotrexate]			grow in the presence of MTX	nM affinity	pM affinity	grow in the presence of MTX
